Assay results reported in PubChem BioAssay (NCI).
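48-hour exposure; five concentrations; linearly interpolated endpoints. The concentration for full growth arrest is given as TGI.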

What was measured:
Assay in all cases: inhibition of tumour cell growth, NCI panel, 48 h
DU-145 prostate = test system: DU-145 prostate
OVCAR-4 ovarian = test system: OVCAR-4 ovarian
SK-MEL-5 melanoma = test system: SK-MEL-5 melanoma
SK-MEL-2 melanoma = test system: SK-MEL-2 melanoma
SNB-75 CNS = test system: SNB-75 CNS
UO-31 renal = test system: UO-31 renal
HCT-116 colon = test system: HCT-116 colon
NCI/ADR-RES ovarian = test system: NCI/ADR-RES ovarian
A549 NSCLC = test system: A549 NSCLC
CAKI-1 renal = test system: CAKI-1 renal
HOP-62 NSCLC = test system: HOP-62 NSCLC
SF-295 CNS = test system: SF-295 CNS
SK-MEL-28 melanoma = test system: SK-MEL-28 melanoma
SNB-19 CNS = test system: SNB-19 CNS
SK-OV-3 ovarian = test system: SK-OV-3 ovarian
MDA-MB-231 breast = test system: MDA-MB-231 breast
BT-549 breast = test system: BT-549 breast
KM12 colon = test system: KM12 colon
786-0 renal = test system: 786-0 renal

Structure (SMILES): O=C(NC1CCCCC1NC(c1ccccc1)(c1ccccc1)c1ccccc1)C(=O)NC1CCCCC1NC(c1ccccc1)(c1ccccc1)c1ccccc1 (stereo not given)
- TGI (DU-145 prostate): > 100 µM
- TGI (OVCAR-4 ovarian): 76.3 µM
- TGI (SK-MEL-5 melanoma): > 100 µM
- TGI (SK-MEL-2 melanoma): > 100 µM
- TGI (SNB-75 CNS): 8.65 µM
- TGI (UO-31 renal): > 100 µM
- TGI (HCT-116 colon): > 100 µM
- TGI (NCI/ADR-RES ovarian): > 100 µM
- TGI (A549 NSCLC): > 100 µM
- TGI (CAKI-1 renal): > 100 µM
- TGI (HOP-62 NSCLC): > 100 µM
- TGI (SF-295 CNS): > 100 µM
- TGI (SK-MEL-28 melanoma): > 100 µM
- TGI (SNB-19 CNS): > 100 µM
- TGI (SK-OV-3 ovarian): 92.8 µM
- TGI (MDA-MB-231 breast): > 100 µM
- TGI (BT-549 breast): > 100 µM
- TGI (KM12 colon): > 100 µM
- TGI (786-0 renal): > 100 µM

Structure (SMILES): CCC1(c2ccccc2)C(=O)N=C(c2ccccc2)N1CCc1ccccc1 (stereo not given)
- TGI (DU-145 prostate): > 100 µM
- TGI (OVCAR-4 ovarian): > 100 µM
- TGI (SK-MEL-5 melanoma): > 100 µM
- TGI (SK-MEL-2 melanoma): > 100 µM
- TGI (SNB-75 CNS): > 100 µM
- TGI (UO-31 renal): > 100 µM
- TGI (HCT-116 colon): > 100 µM
- TGI (NCI/ADR-RES ovarian): > 100 µM
- TGI (A549 NSCLC): > 100 µM
- TGI (CAKI-1 renal): > 100 µM
- TGI (HOP-62 NSCLC): > 100 µM
- TGI (SF-295 CNS): > 100 µM
- TGI (SK-MEL-28 melanoma): > 100 µM
- TGI (SNB-19 CNS): > 100 µM
- TGI (SK-OV-3 ovarian): > 100 µM
- TGI (MDA-MB-231 breast): > 100 µM
- TGI (BT-549 breast): > 100 µM
- TGI (KM12 colon): > 100 µM
- TGI (786-0 renal): > 100 µM

Structure (SMILES): COc1cc2c(cc1OC)C1C=NC(C2)c2cc(OC)c(OC)cc21 (stereo not given)
- TGI (DU-145 prostate): > 100 µM
- TGI (OVCAR-4 ovarian): > 100 µM
- TGI (SK-MEL-5 melanoma): > 100 µM
- TGI (SK-MEL-2 melanoma): > 100 µM
- TGI (SNB-75 CNS): > 100 µM
- TGI (UO-31 renal): > 100 µM
- TGI (HCT-116 colon): > 100 µM
- TGI (NCI/ADR-RES ovarian): > 100 µM
- TGI (A549 NSCLC): > 100 µM
- TGI (CAKI-1 renal): > 100 µM
- TGI (HOP-62 NSCLC): > 100 µM
- TGI (SF-295 CNS): > 100 µM
- TGI (SK-MEL-28 melanoma): > 100 µM
- TGI (SNB-19 CNS): > 100 µM
- TGI (SK-OV-3 ovarian): > 100 µM
- TGI (MDA-MB-231 breast): > 100 µM
- TGI (BT-549 breast): > 100 µM
- TGI (KM12 colon): > 100 µM
- TGI (786-0 renal): > 100 µM

Structure (SMILES): O=[N+]([O-])c1nccn1CCCNc1ccnc2cc(Cl)ccc12
- TGI (DU-145 prostate): > 100 µM
- TGI (OVCAR-4 ovarian): > 100 µM
- TGI (SK-MEL-5 melanoma): 10.9 µM
- TGI (SK-MEL-2 melanoma): > 95.7 µM
- TGI (SNB-75 CNS): > 100 µM
- TGI (UO-31 renal): > 88.4 µM
- TGI (HCT-116 colon): > 100 µM
- TGI (NCI/ADR-RES ovarian): > 100 µM
- TGI (A549 NSCLC): > 100 µM
- TGI (CAKI-1 renal): > 7.83 µM
- TGI (HOP-62 NSCLC): > 92.4 µM
- TGI (SF-295 CNS): > 100 µM
- TGI (SK-MEL-28 melanoma): > 100 µM
- TGI (SNB-19 CNS): > 64.2 µM
- TGI (SK-OV-3 ovarian): > 100 µM
- TGI (MDA-MB-231 breast): > 100 µM
- TGI (BT-549 breast): > 100 µM
- TGI (KM12 colon): > 26.6 µM
- TGI (786-0 renal): > 100 µM

Structure (SMILES): O=C(c1ccccc1)c1ccc2nc(-c3c(Cl)c(Cl)c(Cl)c(Cl)c3C(=O)N/N=C/c3ccc(Cl)cc3)[nH]c2c1
- TGI (DU-145 prostate): > 100 µM
- TGI (OVCAR-4 ovarian): > 100 µM
- TGI (SK-MEL-5 melanoma): 45.7 µM
- TGI (SK-MEL-2 melanoma): 72.4 µM
- TGI (SNB-75 CNS): > 100 µM
- TGI (UO-31 renal): > 100 µM
- TGI (HCT-116 colon): > 100 µM
- TGI (NCI/ADR-RES ovarian): > 100 µM
- TGI (A549 NSCLC): > 100 µM
- TGI (CAKI-1 renal): > 100 µM
- TGI (HOP-62 NSCLC): > 100 µM
- TGI (SF-295 CNS): > 100 µM
- TGI (SK-MEL-28 melanoma): > 100 µM
- TGI (SNB-19 CNS): > 100 µM
- TGI (SK-OV-3 ovarian): > 100 µM
- TGI (MDA-MB-231 breast): 61.4 µM
- TGI (BT-549 breast): > 100 µM
- TGI (KM12 colon): > 100 µM
- TGI (786-0 renal): 99.6 µM
